Reference: US10428044B2, “3-amino-1,5,6,7-tetrahydro-4H-indol-4-ones” (Bayer Pharma Aktiengesellschaft, priority 2014, dated 2019)
pIC50: −log10 of the molar value.

target: (recombinant) catalytic domain of human Bub1 (amino acids 704-1085) (Homo sapiens (Human), UniProt O43683); test: Bub1 kinase assay (TR-FRET); format: biochemical; conditions: ATP 10 μM final, peptide substrate 1 μM final, 60 min at 22° C., read-out: Biological Assay: Bub1 kinase assay median IC50
Method: Examples were tested in selected biological assays one or more times. When tested more than once, data are reported as either average values or as median values, wherein • the average value, also referred to as the arithmetic mean value, represents the sum of the values obtained divided by the number of times tested, and • the median value represents the middle number of the group of values when ranked in ascending or descending order. If the number of values in the data set is odd, the median is the middle value. If the number of values in the data set is even, the median is the arithmetic mean of the two middle values.
To this end, 100-fold concentrated compound solutions (in DMSO) were previously prepared by serial dilution (1:3.4) of 2 mM stocks in a clear low volume 384-well source microtiter plate (Greiner Bio-One, Frickenhausen, Germany), from which 50 nl of compounds were transferred into a black low volume test microtiter plate from the same supplier. […] The resulting mixture (5 μL final volume) was incubated at 22° C. during 60 min., and the reaction was stopped by the addition of 5 μL of an aqueous EDTA-solution (50 mM EDTA, in 100 mM HEPES pH 7.5 and 0.2% (w/v) bovine serum albumin) which also contained the TR-FRET detection reagents (0.2 μM streptavidin-XL665 [Cisbio Bioassays, Codolet, France] and 1 nM anti-phosho-Serine antibody [Merck Millipore, cat. #35-002] and 0.4 nM LANCE EU-W1024 labeled anti-mouse IgG antibody [Perkin-Elmer, product no. AD0077, alternatively a Terbium-cryptate-labeled anti-mouse IgG antibody from Cisbio Bioassays can be used]). The stopped reaction mixture was further incubated 1 h at 22° C. in order to allow the formation of complexes between peptides and detection reagents. Subsequently, the amount of product was evaluated by measurement of the resonance energy transfer from the Eu-chelate-antibody complex recognizing the Phosphoserine residue to the streptavidin-XL665 bound to the biotin moiety of the peptide. […] The data were normalised using two sets of control wells for high- (=enzyme reaction without inhibitor=0%=Minimum inhibition) and low- (=all assay components without enzyme=100%=Maximum inhibition) Bub1 activity. IC50 values were calculated by fitting the normalized inhibition data to a 4-parameter logistic equation (Minimum, Maximum, IC50, Hill; Y=Max+(Min−Max)/(1+(X/IC50)Hill)).

(recombinant) catalytic domain of human Bub1 (amino acids 704-1085), sequence (O43683 704-1085): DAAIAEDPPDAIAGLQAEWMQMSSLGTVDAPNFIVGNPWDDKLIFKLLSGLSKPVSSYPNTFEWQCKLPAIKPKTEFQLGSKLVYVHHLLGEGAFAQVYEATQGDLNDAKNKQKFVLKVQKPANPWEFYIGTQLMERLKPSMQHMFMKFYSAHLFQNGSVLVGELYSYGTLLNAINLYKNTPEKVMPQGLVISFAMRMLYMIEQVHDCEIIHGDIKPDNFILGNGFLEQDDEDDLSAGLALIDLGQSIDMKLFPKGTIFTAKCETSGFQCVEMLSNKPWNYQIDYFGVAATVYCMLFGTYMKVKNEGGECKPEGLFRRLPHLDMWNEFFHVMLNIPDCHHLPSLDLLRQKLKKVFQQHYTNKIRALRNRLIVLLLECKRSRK

pIC50 | Compound
5.95 | CNc1cc(-c2[nH]c3c(c2Nc2ccccc2)C(=O)CCC3)ccn1 [Example 358, 2-[2-(methylamino)pyridin-4-yl]-3-(phenylamino)-1,5,6,7-tetrahydro-4H-indol-4-one]
7.66 | O=C1CC(c2ccccc2)Cc2[nH]c(-c3ccncc3)c(Nc3ccccc3)c21 (stereo not shown) [Example 8, 6-Phenyl-3-phenylamino-2-(pyridin-4-yl)-1,5,6,7-tetrahydroindol-4-one]
7.51 | CC1(C)CC(=O)c2c([nH]c(-c3ccnc4[nH]ncc34)c2Nc2ccccc2)C1 [Example 34, 6,6-dimethyl-3-(phenylamino)-2-(1H-pyrazolo[3,4-b]pyridin-4-yl)-1,5,6,7-tetrahydro-4H-indol-4-one]
6.25 | Cc1cc(-c2[nH]c3c(c2Nc2ccccc2)C(=O)CCC3)ccn1 [Example 143, 2-(2-methylpyridin-4-yl)-3-(phenylamino)-1,5,6,7-tetrahydro-4H-indol-4-one]
6.54 | O=C1CCCc2[nH]c(-c3ccnc(NCc4ccncc4)c3)c(Nc3ccccc3)c21 [Example 367, 3-(phenylamino)-2-{2-[(pyridin-4-ylmethyl)amino]pyridin-4-yl}-1,5,6,7-tetrahydro-4H-indol-4-one]
6.62 | O=C1CCCc2[nH]c(-c3ccnc(Br)c3)c(Nc3ccccc3)c21 [Example 152, 2-(2-bromopyridin-4-yl)-3-(phenylamino)-1,5,6,7-tetrahydro-4H-indol-4-one]
7.75 | O=C1CCCc2[nH]c(-c3ccncc3Cl)c(Nc3ccccc3)c21 [Example 33, 2-(3-chloropyridin-4-yl)-3-(phenylamino)-1,5,6,7-tetrahydro-4H-indol-4-one]
7.09 | CC(C(=O)Nc1cc(-c2[nH]c3c(c2Nc2ccccc2)C(=O)CCC3)ccn1)C(F)(F)F (stereo not shown) [Example 247, 3,3,3-trifluoro-2-methyl-N-{4-[4-oxo-3-(phenylamino)-4,5,6,7-tetrahydro-1H-indol-2-yl]pyridin-2-yl}propanamide]
7.84 | CCCn1c2c(c(Nc3ccccc3)c1-c1ccncc1)C(=O)CCC2 [Example 171, 3-(phenylamino)-1-propyl-2-(pyridin-4-yl)-1,5,6,7-tetrahydro-4H-indol-4-one]
7.95 | CC1(C)CC(=O)c2c([nH]c(-c3ccnc(NC(=O)c4nccs4)c3)c2Nc2ccccc2)C1 [Example 505, N-{4-[6,6-dimethyl-4-oxo-3-(phenylamino)-4,5,6,7-tetrahydro-1H-indol-2-yl]pyridin-2-yl}-1,3-thiazole-2-carboxamide]
6.89 | CC1(C)CC(=O)c2c([nH]c(-c3ccnc4c3OCCO4)c2Nc2ccccc2)C1 [Example 210, 2-(2,3-dihydro[1,4]dioxino[2,3-b]pyridin-8-yl)-6,6-dimethyl-3-(phenylamino)-1,5,6,7-tetrahydro-4H-indol-4-one]
6.59 | CC(C)[n+]1ccc(-c2[nH]c3c(c2Nc2ccccc2)C(=O)CC(C)(C)C3)cc1 [Example 189, 4-[6,6-dimethyl-4-oxo-3-(phenylamino)-4,5,6,7-tetrahydro-1H-indol-2-yl]-1-(propan-2-yl)pyridinium iodide]
6.59 | CC(C)(C)C(=O)Nc1cc(-c2[nH]c3c(c2Nc2ccccc2)C(=O)CCC3)ccn1 [Example 227, 2,2-dimethyl-N-{4-[4-oxo-3-(phenylamino)-4,5,6,7-tetrahydro-1H-indol-2-yl]pyridin-2-yl}propanamide]
8.30 | CC1(C)CC(=O)c2c([nH]c(-c3ccnc(NC(=O)c4cnn(C(C)(C)C)c4)c3)c2Nc2ccccc2)C1 [Example 472, 1-tert-butyl-N-{4-[6,6-dimethyl-4-oxo-3-(phenylamino)-4,5,6,7-tetrahydro-1H-indol-2-yl]pyridin-2-yl}-1H-pyrazole-4-carboxamide]
8.16 | CC1(C)CC(=O)c2c([nH]c(-c3ccncc3OCC3CC3)c2Nc2ccccc2)C1 [Example 411, 2-[3-(cyclopropylmethoxy)pyridin-4-yl]-6,6-dimethyl-3-(phenylamino)-1,5,6,7-tetrahydro-4H-indol-4-one]
7.80 | CC1(C)CC(=O)c2c([nH]c(-c3ccncc3)c2Nc2cccc(Cl)c2)C1 [Example 4, 6,6-dimethyl-3-[(3-chlorophenyl)amino]-2-(pyridin-4-yl)-1,5,6,7-tetrahydro-4H-indol-4-one]
5.78 | O=C1CCCc2[nH]c(-c3ccnc(NCc4ccccc4)c3)c(Nc3ccccc3)c21 [Example 366, 2-[2-(benzylamino)pyridin-4-yl]-3-(phenylamino)-1,5,6,7-tetrahydro-4H-indol-4-one]
6.63 | O=C(CN1CCCC1)Nc1cc(-c2[nH]c3c(c2Nc2ccccc2)C(=O)CCC3)ccn1 [Example 308, N-{4-[4-oxo-3-(phenylamino)-4,5,6,7-tetrahydro-1H-indol-2-yl]pyridin-2-yl}-2-(pyrrolidin-1-yl)acetamide]
8.02 | O=C1CC(C(F)(F)F)Cc2[nH]c(-c3ccncc3)c(Nc3cccc(F)c3)c21 (stereo not shown) [Example 43, 3-[(3-fluorophenyl)amino]-2-(pyridin-4-yl)-6-(trifluoromethyl)-1,5,6,7-tetrahydro-4H-indol-4-one]
7.13 | CN(CCC(=O)Nc1cc(-c2[nH]c3c(c2Nc2ccccc2)C(=O)CCC3)ccn1)C(=O)OC(C)(C)C [Example 299, tert-butyl methyl[3-oxo-3-({4-[4-oxo-3-(phenylamino)-4,5,6,7-tetrahydro-1H-indol-2-yl]pyridin-2-yl}amino)propyl]carbamate]
7.52 | O=C(CC1CC1)Nc1cc(-c2[nH]c3c(c2Nc2ccccc2)C(=O)CCC3)ccn1 [Example 231, 2-cyclopropyl-N-{4-[4-oxo-3-(phenylamino)-4,5,6,7-tetrahydro-1H-indol-2-yl]pyridin-2-yl}acetamide]
7.88 | CC1(C)CC(=O)c2c([nH]c(-c3ccnc4[nH]cnc34)c2Nc2ccccc2)C1 [Example 221, 2-(3H-imidazo[4,5-b]pyridin-7-yl)-6,6-dimethyl-3-(phenylamino)-1,5,6,7-tetrahydro-4H-indol-4-one]
6.29 | CC1(C)CC(=O)c2c([nH]c(-c3ccncc3)c2Nc2cccc(C(N)=O)c2)C1 [Example 101, 3-{[6,6-dimethyl-4-oxo-2-(pyridin-4-yl)-4,5,6,7-tetrahydro-1H-indol-3-yl]amino}benzamide]
7.90 | O=C(Nc1cc(-c2[nH]c3c(c2Nc2ccccc2)C(=O)CCC3)ccn1)c1cocn1 [Example 278, N-{4-[4-oxo-3-(phenylamino)-4,5,6,7-tetrahydro-1H-indol-2-yl]pyridin-2-yl}-1,3-oxazole-4-carboxamide]
6.98 | CCCOc1cccc(Nc2c(-c3ccncc3)[nH]c3c2C(=O)CC(C)(C)C3)c1 [Example 108, 6,6-dimethyl-3-[(3-propoxyphenyl)amino]-2-(pyridin-4-yl)-1,5,6,7-tetrahydro-4H-indol-4-one]
6.88 | CC1(C)CC(=O)c2c([nH]c(-c3ccncc3)c2Nc2cccc(C#N)c2)C1 [Example 79, 3-{[6,6-dimethyl-4-oxo-2-(pyridin-4-yl)-4,5,6,7-tetrahydro-1H-indol-3-yl]amino}benzonitrile]
6.21 | CSc1cc(-c2[nH]c3c(c2Nc2ccccc2)C(=O)CC(C)(C)C3)ccn1 [Example 200, 6,6-dimethyl-2-[2-(methylsulfanyl)pyridin-4-yl]-3-(phenylamino)-1,5,6,7-tetrahydro-4H-indol-4-one]
4.85 | CC1(C)CC(=O)c2c([nH]c(-c3ccncc3)c2Nc2ccnc3ccccc23)C1 [Example 75, 6,6-dimethyl-2-(pyridin-4-yl)-3-(quinolin-4-ylamino)-1,5,6,7-tetrahydro-4H-indol-4-one]
8.08 | CC1(C)CC(=O)c2c([nH]c(-c3ccncc3)c2Nc2ccccc2CCO)C1 [Example 427, 3-{[2-(2-hydroxyethyl)phenyl]amino}-6,6-dimethyl-2-(pyridin-4-yl)-1,5,6,7-tetrahydro-4H-indol-4-one]
7.17 | CC1(C)CC(=O)c2c([nH]c(-c3ccnc(Cl)c3Cl)c2Nc2ccccc2)C1 [Example 214, 2-(2,3-dichloropyridin-4-yl)-6,6-dimethyl-3-(phenylamino)-1,5,6,7-tetrahydro-4H-indol-4-one]

Compound | pIC50
CC1(C)CC(=O)c2c([nH]c(-c3cc[n+](CC(F)F)cc3)c2Nc2ccccc2)C1 [Example 192, 4-[6,6-dimethyl-4-oxo-3-(phenylamino)-4,5,6,7-tetrahydro-1H-indol-2-yl]-1-(2,2-difluoroethyl)pyridinium trifluoromethanesulfonate] | 5.89
